pEC50: −log10 of the molar value. Like-named read-outs stand apart in the source and are kept apart here.
Key:
MIApaca/FG2 cells = experiment: EC50 assay of small molecule activated γδ T cells to kill MIApaca/FG2 tumor cells (3-fold dilution protocol); format: cell-based; details: 0.05-100 nM, read-out: MIApaca killing (EC50)
Description: γδT cells and MIApaca/FG2 tumor cell lines were expanded and cultured in vitro. MIApaca/FG2 cells were digested, and the cells were counted and resuspended in DMEM complete medium, the density of the cell suspension was adjusted and added into a 96-well plate at 5×10^3 cells/100 […]/well for overnight incubation. On the next day, the test compound and the control compound were diluted at a 3-fold ratio with DMSO, and 4 μL of the diluted compound was added to 96 μL of culture medium for 25-fold dilution. 5 μL of 25-fold diluted compound was transferred to the corresponding well which had been plated with tumor cells, and the actual detection concentration was in the range of 0.05-100 nM. γδT cells were resuspended in γδT complete medium, and the density of the cell suspension was adjusted according to the effector-target ratio of E:T=2:1, and then the cell was added to the corresponding well at 1×10^4 cells/100 μL/well. After co-culture at 37° C., 5% CO2 for 20 hours, the cells were centrifuged. The supernatant was removed, and 50 μL of cell lysate containing fluorescein substrate was added to each well. After standing for 18 minutes in the dark, the signal of chemiluminescence was detected. The EC50 value was calculated by four-parameter fitting, with the corresponding signal value of the well with only tumor cells as the minimum killing value, and the corresponding value of the well without tumor cells as the maximum killing value. The killing data of MIApaca/FG2 cells is as follows: […]

[1] = Stability experiment of compounds in human liver microsomes; format: in vitro ADME; details: NADPH, 37° C., read-out: T1/2 in human liver microsomes
Description: Compounds were prepared as a 10 mM stock solution with DMSO and then diluted with 80% acetonitrile-water to a 100 μM working solution for later use. Human liver microsomes were obtained from BIOIVT.
(1) The liver microsomes taken out from the refrigerator were placed in a 37° C. water bath thermostatic oscillator, pre-incubated for 5 min, and thawed for later use.
(2) A certain amount of NADPH was weighed and added to an appropriate amount of magnesium chloride solution to dissolve into a 2 mM solution for later use.
(3) A mixed solution of the warm incubation system (containing no β-NADPH) was prepared according to the proportions in the “composition of the experimental warm incubation system” above and dispensed at 165 μL/tubes (45 μL/tube for the negative control group and 120 μL/tube for the positive control group).
(4) For the sample at 0 min: 200 μL of internal standard working precipitant was added and then 30 μL of NADPH solution was added.
(5) For other samples: 135 μL NADPH solution was added to initiate the reaction (45 μL magnesium chloride solution was added for the negative control group), and incubated in a 37° C. water bath for 5, 15, 30, and 60 min (incubated in a 37° C. water bath for 60 min for the negative control group), then 60 μL was sampled and added to 200 µL of precipitant containing internal standard.
(6) For the positive control group: 90 L NADPH solution was added to initiate the reaction, and incubated in a 37° C. water bath for 5, 15 min, then 60 μL was sampled and added to 200 μL of precipitant containing internal standard.
(7) For neat sample: 297 μL of water was pipetted into a tube, 1000 μL of internal standard working solution was added, and 3 μL of test compound working solution was added.
(8) All samples were vortexed and centrifuged.
(9) 150 μL of the supernatant was sampled and added to 150 μL of water, mixed uniformly by vortex, and analyzed by LC-MS/MS. The half-life stability data of human liver microsomes is as follows: […]

[2] = Binding rate test of compounds and human plasma protein (equilibrium dialysis); format: in vitro ADME; details: human plasma, equilibrium dialysis 6 hours, 37° C.
Description: (1) The dry dialysis membrane was soaked with ultrapure water for 20 min or more than 20 min, then soaked with 20% ethanol for 30 min to 1 h, and the membrane was rinsed with ultrapure water 2-3 times. Finally, the membrane was soaked with ultrapure water for 20 minutes for later use.
(2) The frozen plasma was thawed in a water bath at 37° C.
(3) The test compound was diluted into plasma preheated to 37° C. at a final concentration of 1 μM, and the final concentration of the control compound warfarin in plasma was 2 μM.
(4) The pre-treated dialysis membrane was assembled into the dialysis plate according to the specification of the product, and 120 μL of the receiving solution (100 mM phosphate buffer solution added 0.002% Tween 80) was added to one side of the permeable membrane in each dialysis well.
(5) 20 μL of each of the final solutions of the test compound and the control compound were added into a 96-well sample plate in duplicate, and the TO sample was obtained, which was stored in a refrigerator at −20° C. Another 20 μL of the above final solution was added to the other side of the membrane in the dialysis device in duplicate, and incubated at 37° C. by shaking at constant temperature for 6 hours.
(6) After 6 hours of incubation, 20 L of each of the dialyzed receiving solution and the administered plasma were weighed to obtain sample B and sample A in duplicate. The corresponding volume of corresponding blank plasma or receiving solution was added to sample B and sample A, respectively, so that the volume ratio of plasma to buffer in each sample well was 1:1. 300 μL of acetonitrile solution containing internal standard was added to all sample wells, and centrifuged after mixed uniformly.
(7) 200 μL of ultrapure water (150 μL for the control group) was added into the corresponding sample wells of the 96-well sample plate, and 300 μL of the supernatant (150 μL for the control group) was added into the sample well; the samples were analyzed after mixed uniformly. The free percentage and recovery rate of the compound in plasma were calculated using the following formula: Plasma protein binding rate (%)=1−free percentage, wherein free percentage (%)=CB/CA
wherein CB is the concentration of the compound in the receiving solution after equilibrium dialysis, CA is the concentration of the compound in the drug-dosed plasma after equilibrium dialysis, and CT0 is the initial concentration of the compound in plasma.

[3] = γδT cells + MIApaca/FG2, E:T=2:1, co-culture 20 hours
[4] = Homo sapiens, MIA PaCa-2, γδT cells + MIApaca/FG2, E:T=2:1, co-culture 20 hours

| Compound | pEC50 (MIApaca/FG2 cells; [3]) | pEC50 (MIApaca/FG2 cells; [4]) | half-life [1] | fraction unbound at 6 h, 1 μM [2] |
| --- | --- | --- | --- | --- |
| C/C(=C\CCP(=O)(N[C@@H](C)C(=O)OC1CCS(=O)(=O)CC1)Oc1ccccc1)CO (stereo partly drawn) [Compound 28, 1,1-Dioxotetrahydro-2H-thiopyran-4-yl (((E)-5-hydroxy-4-methylpent-3-en-1-yl)(phenoxy)phosphoryl)-L-alaninate] | 9.06 |  |  |  |
| C/C(=C\CCP(=O)(N[C@@H](C)C(=O)O[C@@H]1CCO[C@H](C)C1)Oc1ccccc1)CO (stereo partly drawn) [Compound 33] |  | 9.19 | 19.9 min | 0.192 |
| C/C(=C\CCP(=O)(N[C@@H](C)C(=O)O[C@@H]1CCOC1)Oc1ccc(Cl)cc1)CO (stereo partly drawn) [Compound 15] | 9.70 |  |  |  |
| C/C(=C\CC(F)(F)P(=O)(N[C@@H](C)C(=O)OC1CCOCC1)Oc1ccccc1)CO (stereo partly drawn) [Compound 38] | 9.19 |  |  |  |
| C/C(=C\CCP(=O)(N[C@@H](C)C(=O)OC1(C#N)CCCC1)Oc1ccccc1)CO (stereo partly drawn) [Compound 36, 1-Cyanocyclopentyl (((E)-5-hydroxy-4-methylpent-3-en-1-yl)(phenoxy)phosphoryl)-L-alaninate] |  | > 10.30 | 3.08 min | 0.038 |
| C/C(=C\CCP(=O)(N[C@@H](C)C(=O)O[C@@H]1CCNC(=O)C1)Oc1ccccc1)CO (stereo partly drawn) [Compound 35, (R)-2-piperidone-4-yl (((E)-5-hydroxy-4-methylpent-3-en-1-yl)(phenoxy)phosphoryl)-L-alaninate] |  | 8.67 | 82.5 min | 0.429 |
| C/C(=C\CCP(=O)(N[C@@H](C)C(=O)O[C@H]1C[C@@H](C)O[C@@H](C)C1)Oc1ccccc1)CO (stereo partly drawn) [Compound 34, (2R,4r,6S)-2,6-dimethyltetrahydro-2H-pyran-4-yl (((E)-5-hydroxy-4-methylpent-3-en-1-yl)(phenoxy)phosphoryl)-L-alaninate] | 8.99 |  |  |  |
| C/C(=C\CC[P@@](=O)(N[C@@H](C)C(=O)O[C@@H]1CCOC1)Oc1ccccc1)CO (single isomer, unassigned) [Compound 18] |  | 9.70 | 20.9 min | 0.178 |
| C[C@H](NP(=O)(CC/C=C(/CO)C(F)(F)F)Oc1ccccc1)C(=O)O[C@@H]1CCOC1 (stereo partly drawn) [Compound 27, (R)-tetrahydrofuran-3-yl (phenoxy((Z)-5,5,5-trifluoro-4-(hydroxymethyl)pent-3-en-1-yl)phosphoryl)-L-alaninate] |  | 9.64 | 10.5 min | 0.193 |
| C/C(=C\CCP(=O)(N[C@@H](C)C(=O)OCCO)Oc1ccccc1)CO (stereo partly drawn) [Compound 25, 2-Hydroxyethyl (((E)-5-hydroxy-4-methylpent-3-en-1-yl)(phenoxy)phosphoryl)-L-alaninate] | 9.77 |  |  |  |
| C/C(=C\CCP(=O)(N[C@@H](C)C(=O)O[C@@H]1CCOC1)Oc1ccccc1)CO (stereo partly drawn) [Compound 7, (R)-Tetrahydrofuran-3-yl (((E)-5-hydroxy-4-methylpent-3-en-1-yl)(phenoxy)phosphoryl)-L-alaninate] |  |  | 21.6 min | 0.222 |
| C/C(=C\CCP(=O)(N[C@@H](C)C(=O)O[C@H]1CO[C@H]2OCC[C@H]21)Oc1ccccc1)CO (stereo partly drawn) [Compound 32, (3R,3aS,6aR)-hexahydrofuran[2,3-b]furan-3-yl (((E)-5-hydroxy-4-methylpent-3-en-1-yl)(phenoxy)phosphoryl)-L-alaninate] |  | 9.68 | 11.4 min | 0.214 |
| C/C(=C\CC(F)(F)P(=O)(N[C@@H](C)C(=O)O[C@@H]1CCOC1)Oc1ccccc1)CO (stereo partly drawn) [Compound 37, (R)-tetrahydrofuran-3-yl (((E)-1,1-difluoro-5-hydroxy-4-methylpent-3-en-1-yl)(phenoxy)phosphoryl)-L-alaninate] |  | 9.70 | 8.11 min | 0.098 |
| C/C(=C\CCP(=O)(N[C@@H](C)C(=O)OC1CCOCC1)Oc1ccccc1)CO (stereo partly drawn) [Compound 20] |  | 9.32 | 24 min | 0.227 |
| C/C(=C\CCP(=O)(N[C@@H](C)C(=O)O[C@@H]1CCOC1)Oc1cccc2ccccc12)CO (stereo partly drawn) [Compound 17] | 9.92 |  |  |  |
| C/C(=C\CCP(=O)(N[C@@H](C)C(=O)O[C@@H]1CCOC1)Oc1ccc(C)cc1)CO (stereo partly drawn) [Compound 16] | 9.26 |  |  |  |
| C/C(=C\CCP(=O)(N[C@@H](C)C(=O)O[C@H]1CCOC1)Oc1ccccc1)CO (stereo partly drawn) [Compound 8, (S)-tetrahydrofuran-3-yl (((E)-5-hydroxy-4-methylpent-3-en-1-yl)(phenoxy)phosphoryl)-L-alaninate] |  |  | 27.3 min | 0.168 |
| C/C(=C\CCP(=O)(N[C@@H](C)C(=O)OC1CCN(CC(F)(F)F)CC1)Oc1ccccc1)CO (stereo partly drawn) [Compound 31] |  | 9.89 | 3.91 min | 0.129 |
| CC(=O)N1CCC(OC(=O)[C@H](C)NP(=O)(CC/C=C(\C)CO)Oc2ccccc2)CC1 (stereo partly drawn) [Compound 29] | 8.79 |  |  |  |
| CC(C)OC(=O)[C@H](C)NP(=O)(CC/C=C(/CO)C(F)(F)F)Oc1ccccc1 (stereo partly drawn) [Compound 24, isopropyl (phenoxy((Z)-5,5,5-trifluoro-4-(hydroxymethyl)pent-3-en-1-yl)phosphoryl)-L-alaninate] | 9.11 |  |  |  |
| C/C(=C\CCP(=O)(N[C@@H](C)C(=O)OC1CC2(COC2)C1)Oc1ccccc1)CO (stereo partly drawn) [Compound 30, 2-Oxaspiro[3.3]heptan-6-yl (((E)-5-hydroxy-4-methylpent-3-en-1-yl)(phenoxy)phosphoryl)-L-alaninate] |  | 9.96 | 24.4 min | 0.359 |
| CC(C)OC(=O)[C@H](C)NP(=O)(CC/C=C(\F)CO)Oc1ccccc1 (stereo partly drawn) [Compound 23, Isopropyl (((Z)-4-fluoro-5-hydroxy-3-en-1-yl)(phenoxy)phosphoryl)-L-alaninate] | 8.40 |  |  |  |
| C/C(=C\CCP(=O)(NC(C)(C)C(=O)O[C@@H]1CCOC1)Oc1ccccc1)CO (stereo partly drawn) [Compound 26, (R)-tetrahydrofuran-3-yl 2-((((E)-5-hydroxy-4-methylpent-3-en-1-yl)(phenoxy)phosphoryl)amino)-2-methylpropanoate] | 10.00 |  |  |  |
